Experimental data: PubChem BioAssay AID2060507 (Molecular Pharmacology Branch, DTP, NCI, 2025)

Tested on: 519858-162-T-J1-PDC complex spheroid viability
Assay: Anticancer human tumor 519858-162-T-J1-PDC patient-derived colon adenocarcinoma cell line growth inhibition [GQUAD]
Details: for IC50: curve of first compound; for viability, T/C: stronger effect = lower value
How it was run: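 Viability of tumor cells grown as complex spheroids with endothelial and stromal cells, exposed to drug combinations. Top concentration at or near clinical Cmax (else 10 microM), diluted in half-log increments.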

[1] = second compound 0.0316 µM, first compound 0.0316 µM
[2] = second compound 0.0316 µM, first compound 0.1 µM
[3] = second compound 0.0316 µM, first compound 0.316 µM
[4] = second compound 0.0316 µM, first compound 1 µM
[5] = second compound 0.0316 µM, first compound 3.16 µM
[6] = second compound 0.0316 µM, first compound 10 µM
[7] = second compound 0.1 µM, first compound 0.0316 µM
[8] = second compound 0.1 µM, first compound 0.1 µM
[9] = second compound 0.1 µM, first compound 0.316 µM
[10] = second compound 0.1 µM, first compound 1 µM
[11] = second compound 0.1 µM, first compound 3.16 µM
[12] = second compound 0.1 µM, first compound 10 µM
[13] = second compound 0.316 µM, first compound 0.0316 µM
[14] = second compound 0.316 µM, first compound 0.1 µM
[15] = second compound 0.316 µM, first compound 0.316 µM
[16] = second compound 0.316 µM, first compound 1 µM
[17] = second compound 0.316 µM, first compound 3.16 µM
[18] = second compound 0.316 µM, first compound 10 µM
[19] = second compound 1 µM, first compound 0.0316 µM
[20] = second compound 1 µM, first compound 0.1 µM
[21] = second compound 1 µM, first compound 0.316 µM
[22] = second compound 1 µM, first compound 1 µM
[23] = second compound 1 µM, first compound 3.16 µM
[24] = second compound 1 µM, first compound 10 µM
[25] = second compound 3.16 µM, first compound 0.0316 µM
[26] = second compound 3.16 µM, first compound 0.1 µM
[27] = second compound 3.16 µM, first compound 0.316 µM
[28] = second compound 3.16 µM, first compound 1 µM
[29] = second compound 3.16 µM, first compound 3.16 µM
[30] = second compound 3.16 µM, first compound 10 µM
[31] = second compound 10 µM, first compound 0.0316 µM
[32] = second compound 10 µM, first compound 0.1 µM
[33] = second compound 10 µM, first compound 0.316 µM
[34] = second compound 10 µM, first compound 1 µM
[35] = second compound 10 µM, first compound 3.16 µM
[36] = second compound 10 µM, first compound 10 µM
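Wherever viability, T/C is given: 100% = DMSO vehicle control viability.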

C=CC(=O)N1CCN(c2nc(=O)n(-c3c(C)ccnc3C(C)C)c3nc(-c4c(O)cccc4F)c(F)cc23)C(C)C1 (stereo unspecified) + CN(C)c1ccc(Nc2c3ccc(NC(=O)CCN4CCCC4)cc3nc3cc(NC(=O)CCN4CCCC4)ccc23)cc1
IC50 (second compound 0.0316 µM): > 10 µM
IC50 (second compound 0.1 µM): > 10 µM
IC50 (second compound 0.316 µM): > 10 µM
IC50 (second compound 1 µM): > 10 µM
IC50 (second compound 3.16 µM): > 10 µM
IC50 (second compound 10 µM): < 0.0316 µM
viability, T/C [1]: 91.5%
viability, T/C [2]: 84.4%
viability, T/C [3]: 61.4%
viability, T/C [4]: 69.3%
viability, T/C [5]: 94%
viability, T/C [6]: 110%
viability, T/C [7]: 81.7%
viability, T/C [8]: 72.3%
viability, T/C [9]: 80.3%
viability, T/C [10]: 61.8%
viability, T/C [11]: 84.1%
viability, T/C [12]: 95.8%
viability, T/C [13]: 88.3%
viability, T/C [14]: 80.8%
viability, T/C [15]: 120%
viability, T/C [16]: 68.8%
viability, T/C [17]: 84%
viability, T/C [18]: 60.1%
viability, T/C [19]: 78.8%
viability, T/C [20]: 74.4%
viability, T/C [21]: 56.4%
viability, T/C [22]: 69.3%
viability, T/C [23]: 78.7%
viability, T/C [24]: 80.3%
viability, T/C [25]: 62.3%
viability, T/C [26]: 63.9%
viability, T/C [27]: 68.8%
viability, T/C [28]: 62.2%
viability, T/C [29]: 47.6%
viability, T/C [30]: 94.9%
viability, T/C [31]: 48.2%
viability, T/C [32]: 40.3%
viability, T/C [33]: 56.7%
viability, T/C [34]: 61.5%
viability, T/C [35]: 49.2%
viability, T/C [36]: 66.5%

CC1COCCN1c1cc(-c2ccnn2C)c2ccnc(-c3ccn[nH]3)c2n1 (stereo unspecified) + CN(C)c1ccc(Nc2c3ccc(NC(=O)CCN4CCCC4)cc3nc3cc(NC(=O)CCN4CCCC4)ccc23)cc1
IC50 (second compound 0.0316 µM): 4.24 µM
IC50 (second compound 0.1 µM): 4.35 µM
IC50 (second compound 0.316 µM): 7.09 µM
IC50 (second compound 1 µM): 4.74 µM
IC50 (second compound 3.16 µM): 5.33 µM
IC50 (second compound 10 µM): 4.46 µM
viability, T/C [1]: 87.2%
viability, T/C [2]: 125%
viability, T/C [3]: 88%
viability, T/C [4]: 101%
viability, T/C [5]: 54%
viability, T/C [6]: 38%
viability, T/C [7]: 78.2%
viability, T/C [8]: 106%
viability, T/C [9]: 86.4%
viability, T/C [10]: 124%
viability, T/C [11]: 55.4%
viability, T/C [12]: 36.1%
viability, T/C [13]: 91.3%
viability, T/C [14]: 86.8%
viability, T/C [15]: 79.3%
viability, T/C [16]: 101%
viability, T/C [17]: 79.6%
viability, T/C [18]: 37.4%
viability, T/C [19]: 100%
viability, T/C [20]: 85.7%
viability, T/C [21]: 73.8%
viability, T/C [22]: 102%
viability, T/C [23]: 63.4%
viability, T/C [24]: 25.3%
viability, T/C [25]: 87.5%
viability, T/C [26]: 83.9%
viability, T/C [27]: 106%
viability, T/C [28]: 92.4%
viability, T/C [29]: 58.7%
viability, T/C [30]: 39.5%
viability, T/C [31]: 71.2%
viability, T/C [32]: 101%
viability, T/C [33]: 73.5%
viability, T/C [34]: 100%
viability, T/C [35]: 51.1%
viability, T/C [36]: 47.3%

CC1COCCN1c1cc(C2(S(C)(=N)=O)CC2)nc(-c2ccnc3[nH]ccc23)n1 (stereo unspecified) + CN(C)c1ccc(Nc2c3ccc(NC(=O)CCN4CCCC4)cc3nc3cc(NC(=O)CCN4CCCC4)ccc23)cc1
IC50 (second compound 0.0316 µM): > 10 µM
IC50 (second compound 0.1 µM): > 10 µM
IC50 (second compound 0.316 µM): > 10 µM
IC50 (second compound 1 µM): > 10 µM
IC50 (second compound 3.16 µM): > 10 µM
IC50 (second compound 10 µM): > 10 µM
viability, T/C [1]: 115%
viability, T/C [2]: 102%
viability, T/C [3]: 119%
viability, T/C [4]: 115%
viability, T/C [5]: 98.3%
viability, T/C [6]: 77.7%
viability, T/C [7]: 133%
viability, T/C [8]: 124%
viability, T/C [9]: 125%
viability, T/C [10]: 110%
viability, T/C [11]: 94.2%
viability, T/C [12]: 70%
viability, T/C [13]: 123%
viability, T/C [14]: 108%
viability, T/C [15]: 81.1%
viability, T/C [16]: 79.7%
viability, T/C [17]: 91.1%
viability, T/C [18]: 100%
viability, T/C [19]: 88.2%
viability, T/C [20]: 88.3%
viability, T/C [21]: 90.8%
viability, T/C [22]: 105%
viability, T/C [23]: 86.5%
viability, T/C [24]: 100%
viability, T/C [25]: 93.3%
viability, T/C [26]: 60.1%
viability, T/C [27]: 93.9%
viability, T/C [28]: 111%
viability, T/C [29]: 84.8%
viability, T/C [30]: 66.1%
viability, T/C [31]: 79.3%
viability, T/C [32]: 62.7%
viability, T/C [33]: 82.8%
viability, T/C [34]: 99.5%
viability, T/C [35]: 82.5%
viability, T/C [36]: 84.8%
